Source: PMC10600239, “Selective MCL-1 inhibitor ABBV-467 is efficacious in tumor models but is associated with cardiac troponin increases in patients” (Communications Medicine, 2023)
Values joined by “and” are separate entries in the source; they are usually repeats but may differ in a detail not shown here. Identical values can stand only once.

System: MV4-11-Red.Fluc
Test: Systemic MV4-11-Red.Fluc model (bioluminescence, total flux)
Assay type: in vivo, mouse
Design: bioluminescence signal, individual mouse (ear tag), 10 min post: unit: p/s
Conditions: for Total Flux minus ROI 1 (background): individual ROI (one per animal), background-subtracted; for bioluminescence signal, group Average, 10 min post / bioluminescence signal, individual mouse (ear tag), 10 min post: MV 4-11 red.fluc, A-1726694 q7dx3 IV, ABT-199 50mkd qdx21 PO
Experimental: All animal studies were conducted in accordance with the guidelines approved by the Institutional Animal Care and Use Committees of AbbVie. The research protocol was approved by In Vivo Pharmacology at AbbVie prior to study initiation but was not publicly registered or disclosed. Female C.B-17 SCID-beige mice (AMO-1, OPM-2, NCI-H929, and OCI-AML2 xenografts) and female NSG mice (MV4-11-Red.Fluc systemic) were purchased from Charles River Laboratories (Wilmington, MA). Animals were housed in a light cycle-controlled room with HEPA filtration at 22 °C. Animals had nesting and climbing cage topper as the primary environmental enrichment. Animals were inoculated subcutaneously in the right flank with 5 × 10^6 (AMO-1, OPM-2, NCI-H929, and OCI-AML2) or intravenous (IV) with 5 × 10^6 (MV4-11-Red.Fluc). The inoculation volume (0.2 mL) comprised a 50:50 mixture of cells in growth media and Matrigel (BD Biosciences) for subcutaneous injections and 100% phosphate-buffered saline for IV administration. All cell lines used in this publication were authenticated using IDEXX for STR profiling as well as their IMPACT and human IMPACT panels for pathogen screening. Electronic calipers were used to measure the length and width of each tumor 2 to 3 times per week. Tumor volume was estimated by applying the following equation: volume = length × width^2/2. All groups remained blinded during measurements and dosing; only veterinary staff were aware of group identity. When tumors reached approximately 200 mm^3, mice were randomized by match and distributed into treatment and control groups. All xenograft trials were conducted using 5 to 10 mice per group, and all mice were ear tagged and monitored individually throughout the studies. Any animal with a tumor above 2000 mm^3 or 15% loss in body weight was euthanized and removed from the study. Tumor burden in the systemic MV4-11-Red.Fluc experiment was measured using an IVIS® spectrum from PerkinElmer by taking the total photon flux of the entire dorsal side of an individual mouse. Ten minutes prior to imaging, animals received intraperitoneally 0.2 mL of a 15-mg/mL solution of D-Luciferin (PerkinElmer, Catalog #122799) formulated in 100% phosphate-buffered saline. Animals were anesthetized using 3.5% isoflurane and maintained using 2%. Six days after inoculation, animals were imaged and randomized into vehicle and treatment groups at a total flux of ~1 × 10^8. A background control mouse that was tumor naive but received D-Luciferin was placed in the upper left corner of each image. The total flux from this animal was subtracted from the total flux of each animal present in the image. […]

## CC1(C)CCC(CN2CCN(c3ccc(C(=O)NS(=O)(=O)c4ccc(NCC5CCOCC5)c([N+](=O)[O-])c4)c(Oc4cnc5[nH]ccc5c4)c3)CC2)=C(c2ccc(Cl)cc2)C1 [venetoclax]
Day 52, listed as ABT-199
  Total Flux minus ROI 1 (background): 4.43E+11 p/s and 2.98E+10 p/s
Day55
  Total Flux minus ROI 1 (background): 5.08E+11 p/s
Day55, individual ROI (one per animal, ROI 2-10), raw value
  Total Flux: 5.09E+11 p/s
Day 6
  bioluminescence signal, group Average, 10 min post: 7.85E+07
  bioluminescence signal, individual mouse (ear tag), 10 min post: 6.21E+07 and 5.74E+07 and 4.57E+07 and 1.10E+08 and 9.71E+07 and 7.20E+07 and 8.40E+07 and 9.10E+07
Day 10
  bioluminescence signal, group Average, 10 min post: 5.02E+08
  bioluminescence signal, individual mouse (ear tag), 10 min post: 3.02E+08 and 5.77E+08 and 2.27E+08 and 9.68E+08 and 7.24E+08 and 4.68E+08 and 3.50E+08 and 4.61E+08
Day 13
  bioluminescence signal, group Average, 10 min post: 1.09E+09
Day 17
  bioluminescence signal, group Average, 10 min post: 4.62E+09
  bioluminescence signal, individual mouse (ear tag), 10 min post: 3.54E+09 and 4.80E+09 and 3.65E+09 and 6.19E+09 and 6.79E+09 and 2.67E+09 and 4.40E+09 and 4.67E+09
Day 20
  bioluminescence signal, group Average, 10 min post: 9.05E+09
  bioluminescence signal, individual mouse (ear tag), 10 min post: 8.51E+09 and 1.38E+10 and 5.28E+09 and 1.23E+10 and 6.88E+09 and 6.58E+09 and 8.42E+09 and 1.02E+10
Day 24
  bioluminescence signal, group Average, 10 min post: 1.53E+10
  bioluminescence signal, individual mouse (ear tag), 10 min post: 9.16E+09 and 1.73E+10 and 6.56E+09 and 2.31E+10 and 2.87E+10 and 1.24E+10 and 1.46E+10 and 1.55E+10
Day 27
  bioluminescence signal, group Average, 10 min post: 2.79E+10
  bioluminescence signal, individual mouse (ear tag), 10 min post: 2.48E+10 and 2.02E+10 and 1.49E+10 and 4.29E+10 and 4.73E+10 and 2.09E+10 and 3.23E+10 and 1.93E+10
Day 31
  bioluminescence signal, group Average, 10 min post: 5.69E+10
Day 34
  bioluminescence signal, group Average, 10 min post: 1.07E+11
Day 38
  bioluminescence signal, group Average, 10 min post: 1.45E+11
Day 41
  bioluminescence signal, group Average, 10 min post: 3.10E+11
  bioluminescence signal, individual mouse (ear tag), 10 min post: 2.65E+11 and 1.55E+11 and 4.70E+11 and 2.06E+11 and 5.84E+11
Day 45
  bioluminescence signal, group Average, 10 min post: 6.43E+11
  bioluminescence signal, individual mouse (ear tag), 10 min post: 4.15E+11
Day 48
  bioluminescence signal, group Average, 10 min post: 2.37E+11
  bioluminescence signal, individual mouse (ear tag), 10 min post: 4.43E+11
Day 55
  bioluminescence signal, group Average, 10 min post: 8.71E+11
